# Data reported in ChEMBL document CHEMBL1128462, “In vivo and in vitro studies on the neurotoxic potential of 6-hydroxydopamine analogs” (J Med Chem, 1995).
# Columns and labels:
# [1] = target: Norepinephrine transporter (Rattus norvegicus, UniProt Q9WTR4); test: Evaluated for the Competitive inhibition of uptake of norepinephrine
# [2] = species: Mus musculus; test: Long term depletion of Norepinephrine (NE) in Whole mouse Brain at a low dose (60 nmol); type: functional
# [3] = species: Mus musculus; test: Long term depletion of Dopamine(DA) in Whole mouse Brain at a low dose (60 nmol); type: functional
# [4] = species: Mus musculus; test: Long term depletion of Norepinephrine (NE) in Whole mouse Brain at a high dose (300 nmol); type: functional
# [5] = target: Sodium-dependent dopamine transporter (Rattus norvegicus, UniProt P23977); test: Evaluated for the Competitive inhibition of uptake of dopamine transporter
# Sodium-dependent dopamine transporter, sequence (P23977 whole entry): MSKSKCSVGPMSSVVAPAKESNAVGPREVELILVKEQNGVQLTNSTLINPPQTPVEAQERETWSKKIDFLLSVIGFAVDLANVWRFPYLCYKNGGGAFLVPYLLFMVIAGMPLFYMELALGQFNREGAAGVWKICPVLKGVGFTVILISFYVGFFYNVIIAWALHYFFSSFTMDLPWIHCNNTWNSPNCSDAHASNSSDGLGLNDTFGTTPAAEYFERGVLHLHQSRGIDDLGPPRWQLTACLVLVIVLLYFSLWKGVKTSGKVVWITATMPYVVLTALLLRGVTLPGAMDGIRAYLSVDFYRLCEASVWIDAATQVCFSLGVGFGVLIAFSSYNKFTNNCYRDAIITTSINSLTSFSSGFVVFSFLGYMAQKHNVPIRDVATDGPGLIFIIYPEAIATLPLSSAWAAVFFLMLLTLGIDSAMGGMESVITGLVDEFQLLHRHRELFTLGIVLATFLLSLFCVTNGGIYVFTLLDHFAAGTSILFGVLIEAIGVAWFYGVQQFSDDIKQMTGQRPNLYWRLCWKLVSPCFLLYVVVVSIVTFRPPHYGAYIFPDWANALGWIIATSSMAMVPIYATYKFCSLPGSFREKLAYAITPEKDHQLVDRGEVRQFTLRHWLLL
# [6] = species: Rattus norvegicus; test: Evaluated for the stimulation of synaptosomal release of Dopamine (release constant); type: functional
# [7] = species: Mus musculus; test: Long term depletion of Dopamine(DA) in Whole mouse Brain at a high dose (300 nmol); type: functional
# [8] = species: Mus musculus; test: Long term depletion of Serotonin(5-HT) in Whole mouse Brain at a low dose (60 nmol); type: functional
# [9] = species: Mus musculus; test: Long term depletion of Serotonin(5-HT) in Whole mouse Brain at a high dose (300 nmol); type: functional
# [10] = species: Rattus norvegicus; test: Evaluated for the stimulation of synaptosomal release of norepinephrine (release constant); type: functional
# [11] = species: Mus musculus; test: Long term depletion of Norepinephrine (NE) in Whole mouse Brain region of hippocampus at a high dose (300 nmol) with respect to control value(100+/-10); type: functional
# [12] = species: Mus musculus; test: Long term depletion of Dopamine(DA) in Whole mouse Brain region of hippocampus at a high dose (300 nmol); type: functional
# [13] = species: Mus musculus; test: Long term depletion of Norepinephrine (NE) in Whole mouse Brain region of hypothalamus at a high dose (300 nmol); type: functional
# [14] = species: Mus musculus; test: Long term depletion of Serotonin(5-HT) in Whole mouse Brain region of medulla-pons at a high dose (300 nmol) with respect to control value(100+/-6); type: functional
# [15] = species: Mus musculus; test: Long term depletion of Serotonin(5-HT) in Whole mouse Brain region of striatum at a high dose (300 nmol); type: functional
# [16] = species: Mus musculus; test: Noradrenergic effect was determined by depletion effect of Serotonin(5-HT) in mouse brain regions expressed as d50; type: functional
# [17] = species: Mus musculus; test: Noradrenergic effect was determined by depletion effect of Nerepinephrine (NE) in mouse brain regions expressed as log d50; type: functional, organism-based
# [18] = species: Mus musculus; test: Long term depletion of Norepinephrine (NE) in Whole mouse Brain, region of midbrain at a high dose (300 nmol) with respect to control value(100+/-8); type: functional
# [19] = species: Mus musculus; test: Long term depletion of Norepinephrine (NE) in Whole mouse Brain region of thalamus at a high dose (300 nmol); type: functional
# [20] = species: Mus musculus; test: Noradrenergic effect was determined by depletion effect of Serotonin(5-HT) in mouse brain regions expressed as log d50; type: functional, organism-based
# [21] = species: Mus musculus; test: Long term depletion of Norepinephrine (NE) in Whole mouse Brain region of cortex at a high dose (300 nmol) with respect to control value(100+/-6); type: functional
# [22] = species: Mus musculus; test: Noradrenergic effect was determined by depletion effect of Nerepinephrine (NE) in mouse brain regions expressed as d50; type: functional
# [23] = species: Mus musculus; test: Long term depletion of Norepinephrine (NE) in Whole mouse Brain region of striatum at a high dose (300 nmol); type: functional
# [24] = species: Mus musculus; test: Long term depletion of Serotonin(5-HT) in Whole mouse Brain region of thalamus at a high dose (300 nmol); type: functional
# [25] = species: Mus musculus; test: Long term depletion of Dopamine(DA) in Whole mouse Brain region of thalamus at a high dose (300 nmol); type: functional
# [26] = species: Mus musculus; test: Long term depletion of Dopamine(DA) in Whole mouse Brain region of cortex at a high dose (300 nmol); type: functional
# [27] = species: Mus musculus; test: Long term depletion of Serotonin(5-HT) in Whole mouse Brain region of hypothalamus at a high dose (300 nmol); type: functional
# [28] = species: Mus musculus; test: Noradrenergic effect was determined by depletion effect of Dopamine(DA) in mouse brain regions expressed as log d50; type: functional, organism-based
# [29] = species: Mus musculus; test: Long term depletion of Dopamine(DA) in Whole mouse Brain region of medulla-pons at a high dose (300 nmol) with respect to control value(100+/-8); type: functional
# [30] = species: Mus musculus; test: Long term depletion of Serotonin(5-HT) in Whole mouse Brain, region of midbrain at a high dose (300 nmol); type: functional
# [31] = species: Mus musculus; test: Long term depletion of Serotonin(5-HT) in Whole mouse Brain region of cortex at a high dose (300 nmol); type: functional
# [32] = species: Mus musculus; test: Noradrenergic effect was determined by depletion effect of Dopamine(DA) in mouse brain regions expressed as d50; type: functional
# [33] = species: Mus musculus; test: Long term depletion of Dopamine(DA) in Whole mouse Brain region of hypothalamus at a high dose (300 nmol) with respect to control value(100+/-14); type: functional
# [34] = species: Mus musculus; test: Long term depletion of Serotonin(5-HT) in Whole mouse Brain region of hippocampus at a high dose (300 nmol); type: functional
# [35] = species: Mus musculus; test: Long term depletion of Norepinephrine (NE) in Whole mouse Brain region of medulla-pons at a high dose (300 nmol) with respect to control value(100+/-9); type: functional
# [36] = species: Mus musculus; test: Long term depletion of Serotonin(5-HT) in Whole mouse Brain region of cerebellum at a high dose (300 nmol); type: functional
# [37] = species: Mus musculus; test: Long term depletion of Norepinephrine (NE) in Whole mouse Brain region of cerebellum at a high dose (300 nmol); type: functional
# [38] = species: Mus musculus; test: Long term depletion of Dopamine(DA) in Whole mouse Brain region of striatum at a high dose (300 nmol); type: functional
# [39] = species: Mus musculus; test: Long term depletion of Dopamine(DA) in Whole mouse Brain region of cerebellum at a high dose (300 nmol) with respect to control value(100+/-9); type: functional
# [40] = species: Mus musculus; test: Long term depletion of Dopamine(DA) in Whole mouse Brain, region of midbrain at a high dose (300 nmol); type: functional
# Norepinephrine transporter, sequence (Q9WTR4 whole entry): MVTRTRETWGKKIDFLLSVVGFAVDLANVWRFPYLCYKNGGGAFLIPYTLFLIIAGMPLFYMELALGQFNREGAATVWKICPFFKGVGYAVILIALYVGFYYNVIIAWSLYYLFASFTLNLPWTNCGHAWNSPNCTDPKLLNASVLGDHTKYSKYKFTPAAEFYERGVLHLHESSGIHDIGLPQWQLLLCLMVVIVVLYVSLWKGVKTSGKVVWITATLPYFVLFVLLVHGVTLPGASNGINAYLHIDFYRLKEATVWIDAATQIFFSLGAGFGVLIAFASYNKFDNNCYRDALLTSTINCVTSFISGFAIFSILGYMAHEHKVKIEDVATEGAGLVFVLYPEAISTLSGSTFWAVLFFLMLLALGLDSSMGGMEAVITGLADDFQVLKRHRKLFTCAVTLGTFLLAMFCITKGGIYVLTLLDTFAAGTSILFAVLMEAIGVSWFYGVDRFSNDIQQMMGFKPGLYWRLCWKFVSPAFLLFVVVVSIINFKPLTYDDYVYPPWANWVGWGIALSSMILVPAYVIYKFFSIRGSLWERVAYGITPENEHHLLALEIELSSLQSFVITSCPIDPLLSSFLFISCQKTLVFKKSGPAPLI
smiles,measurement,setting,value
NCCc1cc(N)c(O)cc1O,Ki,[1],0.013 µM
same,Control,[2],40%
same,Control,[3],96%
same,Control,[4],36%
same,Ki,[5],0.047 µM
same,EC50,[6],105 µM
same,percent of control,[7],84%
same,Control,[8],91%
same,Control,[9],96%
same,EC50,[10],212 µM
NCCc1cc(O)c(N)cc1O,Ki,[1],0.005 µM
same,Control,[2],37%
same,Control,[3],100%
same,Control,[4],39%
same,Ki,[5],0.009 µM
same,EC50,[6],21 µM
same,percent of control,[7],85%
same,Control,[8],73%
same,Control,[9],72%
same,EC50,[10],34 µM
NCCc1cc(O)c(O)cc1O [OXIDOPAMINE],Control,[11],5.3%
same,Control,[12],25%
same,Control,[13],6.9%
same,Ki,[1],0.051 µM
same,Control,[14],109%
same,Control,[15],103%
same,Control,[2],40%
same,d50,[16],1930 nmol
same,Log d50,[17],1.53 nM
same,Control,[18],70%
same,Control,[19],18%
same,Log d50,[20],3.28 nM
same,Control,[21],9%
same,d50,[22],34.3 nmol
same,Control,[23],23%
same,Control,[24],90%
same,Control,[3],86%
same,Control,[25],151%
same,Control,[4],35%
same,Control,[26],53%
same,Ki,[5],0.012 µM
same,EC50,[6],60 µM
same,Control,[27],89%
same,percent of control,[7],71%
same,Log d50,[28],2.92 nM
same,Control,[29],158%
same,Control,[30],89%
same,Control,[31],82%
same,Control,[9],88%
same,d50,[32],831 nmol
same,Control,[33],116%
same,Control,[34],71%
same,Control,[35],47%
same,EC50,[10],828 µM
same,Control,[36],79%
same,Control,[37],3.8%
same,Control,[38],76%
same,Control,[39],72%
same,Control,[40],88%
CC(N)Cc1cc(O)c(O)cc1O (stereo unspecified),Ki,[1],0.026 µM
same,Control,[2],25%
same,Control,[3],87%
same,Ki,[5],0.016 µM
same,EC50,[6],101 µM
same,Control,[8],93%
same,EC50,[10],317 µM
